In patent US20030086923A1, “Method for the prevention and/or treatment of atherosclerosis” (priority 1999, published 2003):

Key:
[1] = tested on: THP-1 macrophages; test: Stimulation of cholesterol efflux from cultured THP-1 macrophages; assay type: cell-based, human; conditions: for EC50: Homo sapiens, THP-1
From the text: Stimulation of Cholesterol Efflux from Cultured Cells
Patients with Tangier disease have mutations in the ABC1 gene and have very low HDL levels. Cultured cells from these patients are defective in cholesterol efflux (Francis et al. (1995) J. Clin. Invest. 96:78-87). Therefore, induction of ABC1 mRNA should lead to increased cholesterol efflux and increased HDL levels (Francis et al. (1999) Clinica Chimica Acta 286:219-230). TIIP-1 cells were used to determine whether induction of ABC1 mRNA by Compound 1 would increase cholesterol efflux. Specifically, cultured human THP-1 cells were stimulated to differentiate into macrophages by incubation with 100 nM tetradecanoyl phorbol acetate for three days, as described above. After differentiation, the TUP-1 macrophages were labeled with ^3H-cholesterol by incubation for 24 hours with 10 μCi/ml ^3H-cholesterol in Complete RPMI media containing 0.1% lipid-free bovine serum albumin (BSA) plus 100 nM tetradecanoyl phorbol acetate. After labeling, the cells were incubated for 24 hours in Complete RPMI media with 0.1% lipid-free bovine serum albumin (BSA) to allow for equilibration of cellular cholesterol pools. Cholesterol efflux was then measured over the following 24 hours by incubating the cells in Complete RPMI media containing 10 μg/ml of apoA-I as cholesterol acceptor, and either Compound 1 or DMSO as control.

[2] = tested on: LXR; test: Activity on LXR (assay not specified)
[3] = tested on: ABC1 mRNA; test: Induction of ABC1 mRNA levels in THP-1 macrophages; assay type: cell-based; conditions: Homo sapiens, ABC-1, 15 μM, 6 hours, vs DMSO control, read-out: Fold Induction of ABC1 mRNA (Mean ± SEM)
Experimental: Induction of ABC1 mRNA levels
Cultured human THP-1 cells were used. All cell culture incubations were performed at 37° C. under 95% air/5% carbon dioxide. Cells were grown in Complete RPMI medium plus 10% FCS (Fetal Calf Serum). Complete RPMI medium is defined as RPMI medium (Sigma Cat.# R8005) containing […], 1 mM Na Pyruvate, 2 mM L-Glutamine, and Antibiotic-Antimyotic Solution (Sigma Cat.# A9909: 100U/ml Penicillin, 0.1 mg/ml Streptomycin, 0.251l/ml Amphotericin B). Cells were differentiated into macrophages by incubation in Complete RPMI medium plus 10% FCS (Fetal Calf Serum) plus 100 nM tetradecanoyl phorbol acetate for three days. After differentiation, the THP-1 macrophages were incubated in Complete RPMI medium plus 10% FCS (Fetal Calf Serum) with the test LXR agonist. After 6 hours at 37° C., the cells were harvested and total RNA prepared using the phenol/guanidine isothiocyanate method as supplied and described by Molecular Research Center, Inc. (TRI REAGENTφ Cat. No. TR 118). ABC1 mRNA levels in the total RNA were measured using the TaqMan® mRNA quantitation system, following protocols published by the manufacturer (Perkin-Elmer). The oligonucleotide PCR primers used to detect ABC1 were:
The oligonucleotide probe used was:
ABC1 mRNA levels in each sample were normalized to the mRNA levels for the 23 kDa highly basic protein. […]

[4] = biological target: T1, human GST-LXRα receptor (Homo sapiens, UniProt Q13133); test: Radioligand competition binding scintillation proximity assay, LXRα
T1 construct: made in house; host or cells: E. coli (pGEX-KT vector)
T1 sequence (Q13133 164-447): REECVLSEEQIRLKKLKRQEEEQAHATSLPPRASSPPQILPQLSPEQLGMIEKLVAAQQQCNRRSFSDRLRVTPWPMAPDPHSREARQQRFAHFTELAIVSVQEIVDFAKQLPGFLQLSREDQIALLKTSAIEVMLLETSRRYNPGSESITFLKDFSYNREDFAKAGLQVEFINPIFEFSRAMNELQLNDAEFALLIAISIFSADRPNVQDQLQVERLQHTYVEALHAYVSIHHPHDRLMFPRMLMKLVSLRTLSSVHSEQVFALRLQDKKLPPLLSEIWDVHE
From the text: (§1) Radioligand Competition Binding Scintillation Proximity Assays:
(§2) Preparation of Recombinant Human LXRα and LXRβ:
(§3) Human LXRα and LXRβ were expressed as GST-fusion proteins in E. coli. The ligand binding domain cDNAs for human LXRα (amino acids 164-447) and human LXRβ (amino acids 149-455) were subcloned into the pGEX-KT expression vector (Pharmacia). E. coli containing the respective plasmids were propagated, induced, and harvested by centrifugation. The resuspended pellet was broken in a French press and debris was removed by centrifugation. Recombinant human LXR receptors were purified by affinity chromatography on glutathione sepharose and receptor was eluted with glutathione. Glycerol was added to a final concentration of 50% to stabilize the receptor and aliquots were stored at −80° C.
(§4) After incubation for ˜16 h at 15° C. with shaking, the assay plates were counted in a Packard Topcount.

[5] = biological target: T2, human GST-LXRβ ligand binding domain receptor (Homo sapiens, UniProt P55055); test: Radioligand competition binding scintillation proximity assay, LXRβ
T2 construct: human LXRβ (amino acids 149-455) were subcloned into the pGEX-KT expression vector; made in house; host or cells: E. coli (pGEX-KT vector)
T2 sequence (P55055 149-455): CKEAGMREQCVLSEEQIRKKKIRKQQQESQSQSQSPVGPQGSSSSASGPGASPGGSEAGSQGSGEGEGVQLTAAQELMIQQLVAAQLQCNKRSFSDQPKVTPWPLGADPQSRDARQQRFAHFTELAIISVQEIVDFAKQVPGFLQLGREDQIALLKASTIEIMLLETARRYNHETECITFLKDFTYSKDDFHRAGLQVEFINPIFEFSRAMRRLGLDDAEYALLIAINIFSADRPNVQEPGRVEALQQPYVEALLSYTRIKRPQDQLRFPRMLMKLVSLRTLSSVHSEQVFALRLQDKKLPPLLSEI
From the text: as §1, §2, §3, §4

[6] = biological target: T3, LXRα-GAL4 fusion protein (Homo sapiens, UniProt Q13133); test: LXRα/GAL4 transactivation assay in HEK-293 cells; assay type: cell-based; conditions: 48 h
T3 construct: expressed in transfected cells; host or cells: HEK-293 (pcDNA3-LXRα/GAL4)
T3 sequence (Q13133 209-447 limits assumed): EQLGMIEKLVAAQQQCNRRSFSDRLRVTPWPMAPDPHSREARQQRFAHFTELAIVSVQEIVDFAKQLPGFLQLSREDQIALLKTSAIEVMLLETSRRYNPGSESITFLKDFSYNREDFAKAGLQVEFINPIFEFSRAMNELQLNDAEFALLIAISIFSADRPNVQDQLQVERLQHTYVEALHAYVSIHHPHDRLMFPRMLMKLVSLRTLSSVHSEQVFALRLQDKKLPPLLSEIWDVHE
Experimental: (§5) Expression constructs were prepared by inserting the ligand binding domain (LBD) of human LXRα and LXRβ cDNAs adjacent to the yeast GAL4 transcription factor DNA binding domain (DBD) in the mammalian expression vector pcDNA3 to create pcDNA3-LXRα/GAL4 and pcDNA3-LXRβ/GAL4, respectively. The GAL4-responsive reporter construct, pUAS(5×)-tk-luc, contained 5 copies of the GAL4 response element placed adjacent to the thymidine kinase minimal promoter and the luciferase reporter gene. The transfection control vector, pEGFP-N1, contained the Green Fluorescence Protein (GFP) gene under the regulation of the cytomegalovirus promoter.
(§6) HEK-293 cells were seeded at 40,000 cells/well in 96 well plates in Dulbecco's modified Eagle medium (high glucose) containing 10% charcoal stripped fetal calf serum (FCS), 100 units/ml Penicillin G and 100 μg/ml Streptomycin sulfate at 37° C. in a humidified atmosphere of 5% CO2. After 24 h, transfections were performed with Lipofectamine (Gibco-BRL, Gaithersburg, Md.) according to the instructions of the manufacturer. […] Luciferase activity in cell extracts was determined using Luciferase Assay Buffer (Promega) in a ML3000 luminometer (Dynatech Laboratories). GFP expression was determined using the Tecan Spectrofluor Plus at excitation wavelength of 485 nm and emission at 535 nm. […]

[7] = biological target: T4, LXRβ-GAL4 fusion protein (Homo sapiens, UniProt P55055); test: LXRβ/GAL4 transactivation assay in HEK-293 cells; assay type: cell-based; conditions: 48 h
T4 construct: expressed in transfected cells; host or cells: HEK-293 (pcDNA3-LXRβ/GAL4)
T4 sequence (P55055 222-460 limits assumed): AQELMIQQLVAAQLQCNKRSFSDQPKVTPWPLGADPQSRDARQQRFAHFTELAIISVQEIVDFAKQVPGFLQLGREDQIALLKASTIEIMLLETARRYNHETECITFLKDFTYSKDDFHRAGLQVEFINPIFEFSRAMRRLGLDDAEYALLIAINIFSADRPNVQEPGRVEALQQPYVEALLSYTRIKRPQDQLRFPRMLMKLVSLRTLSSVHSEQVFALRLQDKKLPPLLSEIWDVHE
Experimental: as §5, §6

[8] = HDL-raising activity in hamsters; assay type: in vivo, hamster; conditions: oral gavage 10 mg per kg twice per day, seven days, p=0.01
Experimental: HDL-Raising Activity: Hamsters were given Compound 4 by oral gavage at 10 mg per kg body weight, twice per day, for seven days. Blood was then collected and serum HDL cholesterol measured.

CC(C)CC[C@H](O)[C@@H](C)[C@H]1CC[C@H]2[C@@H]3CC=C4C[C@@H](O)CC[C@]4(C)[C@H]3CC[C@]12C [22-(S)-hydroxy-cholesterol, reference compound]
Stimulation of cholesterol efflux (in words) [1]: did not stimulate cholesterol efflux at all | Activity on LXR (in words) [2]: inactive

CC(C)CC[C@@H](O)[C@@H](C)[C@H]1CC[C@H]2[C@@H]3CC=C4C[C@@H](O)CC[C@]4(C)[C@H]3CC[C@]12C [Compound 2, 22(R)-hydroxycholesterol, reference compound]
fold induction at 15 µM [3]: 6.7 ± 1.2 | Stimulation of cholesterol efflux ([1]; 5 μM, p<0.001): 57%

CC(C)N(C(=O)[C@H]1CCC2C3CC=C4N(C)C(=O)CCC4(C)C3CCC21C)C(C)C (stereo partly shown) [Compound 3]
IC50 [4]: 112 nM | IC50 [5]: 442 nM | EC50 [1]: 120 nM

CCCc1c(OCCCN2C(=O)CCNC2=O)ccc2c(C(F)(F)F)noc12 [Compound 4, 4,5-Dihydro-1-(3-(3-trifluoromethyl-7-propyl-benzisoxazol-6-yloxy)propyl)-2,6-pyrimidinedione]
IC50 [4]: 1 nM | IC50 [5]: 72 nM | EC50 [6]: 183 nM | EC50 [7]: 360 nM | EC50 [1]: 63 nM | Increase of serum HDL cholesterol levels vs vehicle control [8]: 21%
